This assay concerns M. gallisepticum (MG) field-isolated strain T. Put plainly: In vivo test on chickens inoculated with M. gallisepticum in right air sacs. To be noted: oral, 5 chickens tested, autopsy 7th day.

Each structure is given as a SMILES string.

As to `CN(C)[C@@H]1C(O)=C(C(N)=O)C(=O)[C@@]2(O)C(O)=C3C(=O)c4c(O)ccc(Cl)c4[C@@](C)(O)[C@H]3C[C@@H]12` [CTC, Chlortetracycline], for the setting “1 × 50 mg/kg”, the “No. of lesions of right air sacs: --” value is 1, the “No. of lesions of right air sacs: Moderate to severe” value (from here on “No. of lesions … to severe”) amounted to 3 and the “No. of lesions of right air sacs: Slight” value is reported as 1. Besides, under “1 × 100 mg/kg”, the “No. of lesions of right air sacs: --” value is given as 2, the “No. of lesions … to severe” value is 2 and the “No. of lesions of right air sacs: Slight” value was 1.
Consider `CC[C@H]1OC(=O)C[C@@H](O)[C@H](C)[C@@H](O[C@@H]2O[C@H](C)[C@@H](O[C@H]3C[C@@](C)(O)[C@@H](O)[C@H](C)O3)[C@H](N(C)C)[C@H]2O)[C@@H](CC=O)C[C@@H](C)C(=O)/C=C/C(C)=C/[C@@H]1CO[C@@H]1O[C@H](C)[C@@H](O)[C@@H](OC)[C@H]1OC` [TS, Tylosin], for which, where the note is “1 × 100 mg/kg”, the “No. of lesions of right air sacs: --” value was found to be 1, the “No. of lesions … to severe” value amounted to 4 and the “No. of lesions of right air sacs: Slight” value turned out to be 0. In addition, under “1 × 200 mg/kg”, the “No. of lesions of right air sacs: --” value is listed as 0, the “No. of lesions … to severe” value is 2 and the “No. of lesions of right air sacs: Slight” value came to 3.
